Legend:
[1] = Treatment of a dog with arthritic-related symptoms (Example 7); type: in vivo; settings: 15-year old dog about 25 kg, commercially-available drug therapy for nine months; some worsening noted
Procedure: A 15-year old, black Labrador Retriever, mixed-heritage, neutered-male dog weighing about 25 kg has a history of arthritic-related symptoms that makes it difficult, or impossible, for the dog to stand, walk, or ascend or descend stairs. […] Over a subsequent period of six months, this dog is treated with a cyclooxygenase-2 inhibitor in the manner described as follows.
About 125 mg of a 95% pure, selective cyclooxygenase-2 inhibitor in white crystalline powder form is dispersed in a teaspoon of olive oil which is then spread over the surface of a single slice of commercially-available wheat bread. The bread is cut into quarters, all of which is then fed to the dog. The dog is observed to consume the entire slice of bread. Within ten (10) days of initial feeding of this dog, as described above, there is observed noticeable improvement in alleviation of arthritic-related symptoms. For example, the dog is observed to walk easily, descend stairs, […], and be less lethargic in day-to-day activities.

[2] = Cynomolgus monkeys, orally for six weeks; cited from earlier work

Structure (SMILES): CC(C(=O)O)c1ccc2c(c1)[nH]c1ccc(Cl)cc12 (centres unmarked) [Rimadyl carprofan]
- improvement in the dog's arthritic-related symptoms [1]: without improvement

Structure (SMILES): CN1C(C(=O)Nc2ccccn2)=C(O)c2sc(Cl)cc2S1(=O)=O [lomoxicam]
- Toxicity [2]: monkeys: 1-2 mg/kg/day
